Measured values taken from PubChem BioAssay AID1189 (EPA DSSTox, 2008).
Active and inactive are the calls of the source.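 The calls were made as follows: active = a tumor-causing dose value with its tumor site reported for any sex and species group of a rodent or other animal cancer study; inconclusive = only studies judged inadequate by the national testing program; inactive = tested in at least one study, none positive.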

Test: DSSTox (CPDBAS) Carcinogenic Potency Database Summary SingleCellCall Results
Conditions: animal chronic carcinogenicity bioassays, CPDB summary call
Excerpt: The Carcinogenic Potency Database (CPDB) is a unique and widely used international resource of the results of over 6500 chronic, long-term animal cancer tests on over 1500 chemical substances. The CPDB provides easy access to the bioassay literature, with qualitative and quantitative analyses of both positive and negative experiments that have been published over the past 50 years in the general literature and by the National Cancer Institute/National Toxicology Program. The CPDB standardizes the diverse literature of cancer bioassays that vary widely in protocol, histopathological examination and nomenclature, and in the published author's choices of what information to provide in their papers. Results are reported in the CPDB for tests in rats, mice, hamsters, dogs, and nonhuman primates, and are based on the most positive result among all experiments for each sex-species. The DSSTox CPDBAS (all species) file incorporates data from the CPDB Summary Tables for the full list of over 1500 chemical substances tested in at least one species. A summary SingleCellCall, based on experimental bioassay results of one or more species, is provided for the entire DSSTox CPDBAS file (see Source URL).
An assignment of categorical carcinogenic activity based on minimal evidence for or against activity. […] Associated TD50 values and tumor site details for the relevant species/sex experiment supporting this overall CPDBAS SingleSiteCall are provided in the full CPDBAS DSSTox file (see Comment) and the corresponding CPDBAS Species Bioassay in PubChem.

Row | SMILES | outcome
1 | CN(N)C=O | active
2 | CCCCCCCN | inactive
3 | [N-]=[N+]=CC(=O)OC[C@H](N)C(=O)O | active
4 | CC(C)CON=O | active
5 | S=C=NCCCCCCc1ccccc1 | inactive
6 | CC(=O)N[C@@H](CS)C(=O)O | inactive
7 | CC1(C)S[C@@H]2[C@H](NC(=O)[C@H](N)c3ccccc3)C(=O)N2[C@H]1C(=O)O | inactive
8 | COS(C)(=O)=O | active; inactive
9 | CNC[C@H](O)c1ccc(O)c(O)c1 | inactive
10 | CCCCOC(=O)c1ccc(O)cc1 | inactive; active
11 | NC(=S)NNC=O | inactive
12 | COC(=O)C1=C(C)NC(C)=C(C(=O)OCCc2ccc(N3CCN(C(c4ccccc4)c4ccccc4)CC3)cc2)C1c1cccc([N+](=O)[O-])c1 (stereo not drawn) | inactive; active
13 | CN1CCCC1=O | active
14 | CN(C)[C@@H]1C(=O)C(C(N)=O)=C(O)[C@@]2(O)C(=O)C3=C(O)c4c(O)cccc4[C@@](C)(O)[C@H]3C[C@@H]12 | inactive
15 | O=NN1CCOC1=O | active; inactive
16 | NNCc1ccccc1 | active
17 | CCOc1ccc(NC(C)=O)cc1N | active
18 | ClC/C=C/CCl | active; inactive
19 | CC1(C)[C@H](C(=O)O[C@H](C#N)c2cccc(Oc3ccccc3)c2)[C@@H]1C=C(Br)Br | inactive
20 | Cc1cc(N=Nc2c(O)ccc3ccccc23)c(S(=O)(=O)O)cc1Cl | active; inactive
21 | O=S(=O)(c1ccc(Cl)cc1)c1ccc(Cl)cc1 | inactive; active
22 | Oc1ccc(Cl)cc1Cc1ccccc1 | active
23 | O=S(=O)(O)CCS | inactive; active

Row | SMILES | outcome
24 | [O-][Cl+]O | inactive; active
25 | CC(=O)C1C(=O)C=C(C)OC1=O (stereo not drawn) | inactive; active
26 | CC(C)C(C(=O)OC(C#N)c1cccc(Oc2ccccc2)c1)c1ccc(Cl)cc1 (stereo not drawn) | inactive
27 | CNNCc1ccc(C(=O)NC(C)C)cc1 | active
28 | COC(=O)C1=C(C)NC(C)=C(C(=O)OCC(C)(C)CN(C)Cc2ccccc2)C1c1cc([N+](=O)[O-])ccc1F (stereo not drawn) | inactive
29 | COc1ccc2nc(S(=O)Cc3ncc(C)c(OC)c3C)[nH]c2c1 (stereo not drawn) | active
30 | C=CCN(N)CC=C | active
31 | CC/C(=C(/CC)c1ccc(O)cc1)c1ccc(O)cc1 | active
32 | CCCCOC(=O)c1ccccc1C(=O)OCc1ccccc1 | active
33 | c1ccc2c(c1)Oc1ccccc1O2 | inactive; active
34 | c1ccc(NNc2ccccc2)cc1 | active
35 | [S-]c1nc2ccccc2s1.[S-]c1nc2ccccc2s1.[Zn+2] | inactive; active
36 | C#C[C@]1(O)CC[C@H]2[C@@H]3CCc4cc(O)ccc4[C@H]3CC[C@@]21C | active; inactive
37 | CCC[CH2][Sn]([CH2]CCC)([O]C(C)=O)[O]C(C)=O | inactive
38 | Cc1cccc(C)c1N | inactive; active
39 | O=NN1CCCCC1c1cccnc1 (stereo not drawn) | active
40 | C[C@]12CC[C@@H]3c4ccc(OC(=O)Cc5ccc(N(CCCl)CCCl)cc5)cc4CC[C@H]3[C@@H]1CC[C@@H]2OC(=O)Cc1ccc(N(CCCl)CCCl)cc1 | active
41 | CN(C)C(=O)Cl | active
42 | O=c1cc(CO)occ1O | active
43 | Cn1cnc2nc(N)[nH]c(=O)c21 | inactive
44 | CN(C)CCOc1ccc(/C(=C(/CCCl)c2ccccc2)c2ccccc2)cc1 | inactive
45 | CCC(C(=O)NC(N)=O)c1ccccc1 (stereo not drawn) | inactive
46 | Oc1ccccc1 | inactive

Row | SMILES | outcome
47 | C/C(=C(\CCOC(=O)c1ccccc1)SC(=O)c1ccccc1)N(C=O)Cc1cnc(C)nc1N | inactive; active
48 | O=[N+]([O-])c1ccc(Nc2ccc(Nc3ccccc3)c(S(=O)(=O)O)c2)c([N+](=O)[O-])c1 | active; inactive
49 | OCCN(CCO)c1nc(-c2cccs2)nc2ccccc12 | inactive
50 | Cc1ccc(-c2cc(C(F)(F)F)nn2-c2ccc(S(N)(=O)=O)cc2)cc1 | inactive
51 | Oc1ccc(OCc2ccccc2)cc1 | inactive; active
52 | Cc1ccccc1OCC(O)CNCCn1cc(C)c(=O)[nH]c1=O (stereo not drawn) | inactive
53 | O=C(O)c1ccccc1-c1c2cc(I)c(=O)c(I)c-2oc2c(I)c(O)c(I)cc12 | inactive
54 | O=S(=O)(O)c1ccc(N=Nc2cc(S(=O)(=O)O)c3ccccc3c2O)c2ccccc12 | inactive; active
55 | CN(C)CCOC(c1ccccc1)c1ccccc1 | inactive
56 | CCCCCCCCCCCCCCCC(=O)OC/C=C(C)/C=C/C=C(C)/C=C/C1=C(C)CCCC1(C)C | inactive
57 | N=c1ccn2c(n1)O[C@H]1[C@H](O)[C@@H](CO)O[C@H]12 | inactive
58 | Clc1cccc(-c2cc(Cl)cc(Cl)c2)c1 | active
59 | CC(C)CCC[C@@H](C)[C@H]1CC[C@H]2[C@@H]3CC=C4C[C@@H](OC(=O)Cc5ccc(N(CCCl)CCCl)cc5)CC[C@]4(C)[C@H]3CC[C@]12C | active
60 | CCCCCc1cc(O)c2c(c1)OC(C)(C)[C@@H]1CCC(C)=C[C@@H]21 | inactive; active
61 | CCN(N=O)C(=O)NCC(C)=O | active
62 | CCC[CH2][Sn]([CH2]CCC)([CH2]CCC)[O][Sn]([CH2]CCC)([CH2]CCC)[CH2]CCC | inactive
63 | CC[N+](=O)[O-] | inactive
64 | CC(C)(OCc1ccc(-c2ccc(Cl)cc2)cc1)C(=O)O | active
65 | C[C@H]([C@H](O)CCC(C)(C)O)[C@H]1CC[C@@]2(O)C3=CC(=O)[C@@H]4C[C@@H](O)[C@@H](O)C[C@]4(C)[C@H]3CC[C@]12C | active; inactive
66 | NCCCC(N)(C(=O)O)C(F)F (stereo not drawn) | inactive
67 | CC1=C[C@H]2O[C@@H]3[C@H](O)[C@@H](O)[C@@](C)(C34CO4)[C@@]2(CO)[C@H](O)C1=O (stereo partly drawn) | inactive; active
68 | CCN(Cc1cccc(S(=O)(=O)O)c1)c1ccc(C(=C2C=CC(=[N+](CC)Cc3cccc(S(=O)(=O)[O-])c3)C=C2)c2ccccc2)cc1 | active
69 | NC(=O)c1ccncc1 | inactive

Row | SMILES | outcome
70 | CC[C@H](OC(C)=O)C(C[C@H](C)N(C)C)(c1ccccc1)c1ccccc1 | active
71 | C[C@H]1CCCC(=O)CCC/C=C/c2cc(O)cc(O)c2C(=O)O1 | active
72 | CC(C)=CCC/C(C)=C/C=O | inactive
73 | Cc1ccccc1N=O | active
74 | CC(=O)Nc1ccc(-c2ccccc2)cc1O | inactive; active
75 | O=C1OC(C(O)CO)C(O)=C1O (stereo not drawn) | inactive
76 | Oc1ccccc1O | active
77 | CCOC(=O)CBr | inactive
78 | CCN(CC)CC#CC(C)(C)OC(=O)C(O)(c1ccccc1)C1CCCCC1 (stereo not drawn) | inactive; active
79 | O=NN(CC(=O)O)CC(=O)O | inactive
80 | S=C=Nc1ccccc1 | inactive
81 | NC(=S)Nc1ccccc1 | inactive
82 | CC(C)C/C=N/N(C)C=O | active
83 | Cc1cc(=O)n(-c2ccccc2)n1C | active; inactive
84 | CCNN | active
85 | IC(I)I | inactive
86 | ClC(Cl)(Cl)c1ccccc1 | active; inactive
87 | CCO | active
88 | C=C/C=N/O | inactive
89 | Cc1ccc(C)c(OCCCC(C)(C)C(=O)O)c1 | active; inactive
90 | CC(C)N(C(=O)SC/C(Cl)=C/Cl)C(C)C | active; inactive
91 | NC(N)=NC(N)=NCCc1ccccc1 | inactive
92 | c1ccoc1 | active; inactive

Row | SMILES | outcome
93 | CC(=O)CN(CC(C)=O)N=O | active
94 | CC(C)N=[N+]([O-])C(C)C | active
95 | COc1cc(/C=C/C(=O)O[C@H]2CC[C@]34C[C@]35CC[C@]3(C)[C@@H]([C@H](C)CCC=C(C)C)CC[C@@]3(C)[C@@H]5CC[C@H]4C2(C)C)ccc1O | inactive
96 | ClCOCc1ccc(COCCl)cc1 | active
97 | c1ccc(Nc2ccc3ccccc3c2)cc1 | inactive
98 | CCN(Cc1cccc(S(=O)(=O)[O-])c1)c1ccc(C(=C2C=CC(=[N+](C)C)C=C2)c2ccc(N(CC)Cc3cccc(S(=O)(=O)O)c3)cc2)cc1 | active
99 | CC1=C2C(=CO[C@@H](C)[C@@H]2C)C(=O)C(C(=O)O)=C1O | active
100 | O=C(Oc1ccccc1)Oc1ccccc1 | inactive
101 | COC(=O)NN | inactive; active
102 | O=c1[nH]cc(F)c(=O)[nH]1 | active; inactive
103 | Cc1cc(C)nc(NS(=O)(=O)c2ccc(N)cc2)n1 | active
104 | O=C1O[C@H]([C@H](O)CO)C(O)=C1O | inactive; active
105 | CCN(CC)c1ccc(N=Nc2cc[n+]([O-])cc2)cc1 | active
106 | [N-]=[N+]=[N-] | inactive; active
107 | CN(C)N=O | active
108 | CC(=O)NCc1nc(-c2ccc([N+](=O)[O-])o2)no1 | active
109 | CC(C)(Oc1ccc(C2CCCc3ccccc32)cc1)C(=O)O (stereo not drawn) | active; inactive
110 | COc1cc(/C=C/C(=O)CC(=O)/C=C/c2ccc(O)c(OC)c2)ccc1O | inactive
111 | C=CC=O | inactive
112 | Oc1ccccc1-c1ccccc1 | active
113 | Cc1ccc(S(=O)(=O)NC(=O)NN2CCCCCC2)cc1 | inactive
